According to US20250320224A1 (DOMAIN THERAPEUTICS, priority 2022, published 2025):
Counter-ions that a name gives are not always drawn.

Molecular target: T1, human PAR-2 (hPAR-2) receptor (Homo sapiens, UniProt P55085)
T1 construct: expressed in HEK-293 cells in an endogenous manner; endogenous in cells; host or cells: HEK-293
T1 sequence (P55085 26-397): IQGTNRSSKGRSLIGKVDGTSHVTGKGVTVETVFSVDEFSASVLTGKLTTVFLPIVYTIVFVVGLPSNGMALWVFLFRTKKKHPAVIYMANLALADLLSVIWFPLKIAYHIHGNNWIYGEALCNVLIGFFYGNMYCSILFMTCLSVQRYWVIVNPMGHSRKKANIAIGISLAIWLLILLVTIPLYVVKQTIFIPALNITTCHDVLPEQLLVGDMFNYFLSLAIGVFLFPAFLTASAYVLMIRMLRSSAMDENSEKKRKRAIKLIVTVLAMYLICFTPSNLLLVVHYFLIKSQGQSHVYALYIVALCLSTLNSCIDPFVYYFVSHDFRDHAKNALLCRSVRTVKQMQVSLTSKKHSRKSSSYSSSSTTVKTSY
Assay: In vitro human PAR-2 functional antagonist activity using calcium assays
Assay type: cell-based
Conditions: hPAR-2 endogenously expressed in HEK-293 cells; stimulated by 2-Furoyl-LIGRLO-NH2 peptide; Fluo4AM intracellular calcium, FLIPR Tetra
Procedure, shortened: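 HEK-293 cells with endogenous hPAR-2 were loaded with Fluo4AM and read for intracellular Ca2+ on FLIPR. After 10 min with compound alone, cells were stimulated with 2-Furoyl-LIGRLO-NH2 at the concentration giving 80% of maximal response. Inhibition was then recorded over 5 min relative to buffer and agonist-only signals.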

IC50 [nM] | SMILES
< 500 | CCN1CCN(C(=O)c2ccc3c(n2)C(C)(C)CN3c2ccc(Cl)c(F)c2)C(C)(C)C1=O [Example 19, 4-(1-(4-chloro-3-fluorophenyl)-3,3-dimethyl-2,3-dihydro-1H-pyrrolo[3,2-b]pyridine-5-carbonyl)-1-ethyl-3,3-dimethylpiperazin-2-one]
< 500 | CC1(C)C(=O)NCCN1C(=O)c1ccc2c(n1)C1(CCCC1)CN2c1ccc(Cl)c(F)c1 [Example 3, 4-(1′-(4-chloro-3-fluorophenyl)-1′,2′-dihydrospiro[cyclopentane-1,3′-pyrrolo[3,2-b]pyridine]-5′-carbonyl)-3,3-dimethylpiperazin-2-one]
< 500 | CC1(C)C(=O)NCCN1C(=O)c1ccc2c(n1)C1(CC1)CN2c1ccc(Cl)c(F)c1 [Example 57, 4-(1′-(4-chloro-3-fluorophenyl)-1′,2′-dihydrospiro[cyclopropane-1,3′-pyrrolo[3,2-b]pyridine]-5′-carbonyl)-3,3-dimethylpiperazin-2-one]
< 500 | Cc1cc(N2CCN(C(=O)c3cnc4c(n3)C3(CCCC3)CN4c3ccc(Cl)c(F)c3)C(C)(C)C2)nc(C)c1C(=O)O [Example 207, 6-(4-(5′-(4-chloro-3-fluorophenyl)-5′,6′-dihydrospiro[cyclopentane-1,7′-pyrrolo[2,3-b]pyrazine]-2′-carbonyl)-3,3-dimethylpiperazin-1-yl)-2,4-dimethylnicotinic acid]
500 to 10000 | CC1(C)C(=O)NCCN1C(=O)c1ccc2c(n1)C1(CCOCC1)C(=O)N2c1ccc(Cl)c(F)c1 [Example 1, 1′-(4-chloro-3-fluorophenyl)-5′-(2,2-dimethyl-3-oxopiperazine-1-carbonyl)-2,3,5,6-tetrahydrospiro[pyran-4,3′-pyrrolo[3,2-b]pyridin]-2′(1′H)-one]
< 500 | Cc1nc(N2CCN(C(=O)c3ccc4c(n3)C(C)(C)CN4c3ccc(Cl)c(F)c3)C(C)(C)C2)sc1CC(=O)O [Example 71, 2-(2-(4-(1-(4-chloro-3-fluorophenyl)-3,3-dimethyl-2,3-dihydro-1H-pyrrolo[3,2-b]pyridine-5-carbonyl)-3,3-dimethylpiperazin-1-yl)-4-methylthiazol-5-yl)acetic acid]
< 500 | COc1ncc(N2CCN(C(=O)c3ccc4c(n3)C(C)(C)CN4c3ccc(Cl)c(F)c3)C(C)(C)C2)cc1C(=O)O [Example 142, 5-(4-(1-(4-chloro-3-fluorophenyl)-3,3-dimethyl-2,3-dihydro-1H-pyrrolo[3,2-b]pyridine-5-carbonyl)-3,3-dimethylpiperazin-1-yl)-2-methoxynicotinic acid]
< 500 | Cc1cc(N2CCN(C(=O)c3ccc4c(n3)C(C)(C)CN4c3ccc(Cl)c(F)c3)C(C)(C)C2)nc(C)c1C(=O)O [Example 45, 6-(4-(1-(4-chloro-3-fluorophenyl)-3,3-dimethyl-2,3-dihydro-1H-pyrrolo[3,2-b]pyridine-5-carbonyl)-3,3-dimethylpiperazin-1-yl)-2,4-dimethylnicotinic acid]
500 to 10000 | CC1(C)CN(c2ccc(Cl)c(F)c2)Cc2cn(C(=O)N3CCN(c4ccc(CC(=O)O)cn4)CC3(C)C)nc21 [Example 273, 2-(6-(4-(5-(4-chloro-3-fluorophenyl)-7,7-dimethyl-4,5,6,7-tetrahydro-2H-pyrazolo[4,3-c]pyridine-2-carbonyl)-3,3-dimethylpiperazin-1-yl)pyridin-3-yl)acetic acid]
< 500 | Cc1ccc(N2CC(C)(C)c3nc(C(=O)N4CCN(c5cc(C)c(C(=O)O)c(C)n5)CC4(C)C)cnc32)cc1Cl [Example 189, 6-(4-(5-(3-chloro-4-methylphenyl)-7,7-dimethyl-6,7-dihydro-5H-pyrrolo[2,3-b]pyrazine-2-carbonyl)-3,3-dimethylpiperazin-1-yl)-2,4-dimethylnicotinic acid]
< 500 | CC1(C)CN(c2ccc(Cl)c(F)c2)c2ccc(C(=O)N3CCN(c4nc(C(=O)N5CCOCC5)cs4)CC3(C)C)nc21 [Example 82, (1-(4-chloro-3-fluorophenyl)-3,3-dimethyl-2,3-dihydro-1H-pyrrolo[3,2-b]pyridin-5-yl)(2,2-dimethyl-4-(4-(morpholine-4-carbonyl)thiazol-2-yl)piperazin-1-yl)methanone]
500 to 10000 | Cc1cc(C)nc(N2CCN(C(=O)c3ccc4c(n3)C(C)(C)CN4C3CCC(C#N)CC3)C(C)(C)C2)c1 (stereo not drawn) [Example 165, 4-(5-(4-(4,6-dimethylpyridin-2-yl)-2,2-dimethylpiperazine-1-carbonyl)-3,3-dimethyl-2,3-dihydro-1H-pyrrolo[3,2-b]pyridin-1-yl)cyclohexane-1-carbonitrile]
500 to 10000 | Cc1cc(N(C)CCN(C)C(=O)c2ccc3c(n2)C(C)(C)CN3c2ccc(Cl)c(F)c2)nc(C)c1C(=O)O [Example 50, 6-((2-(1-(4-chloro-3-fluorophenyl)-N,3,3-trimethyl-2,3-dihydro-1H-pyrrolo[3,2-b]pyridine-5-carboxamido)ethyl)(methyl)amino)-2,4-dimethylnicotinic acid]
< 500 | Cc1cc(N2CCN(C(=O)c3cnc4c(n3)C(C)(C)CN4c3ccc(C(F)(F)F)c(Cl)c3)C(C)(C)C2)nc(C)c1C(=O)O [Example 193, 6-(4-(5-(3-chloro-4-(trifluoromethyl)phenyl)-7,7-dimethyl-6,7-dihydro-5H-pyrrolo[2,3-b]pyrazine-2-carbonyl)-3,3-dimethylpiperazin-1-yl)-2,4-dimethylnicotinic acid]
500 to 10000 | CN1CNC(=O)C12CCN(C(=O)c1ccc3c(n1)C(C)(C)CN3c1ccc(Cl)c(F)c1)CC2 [Example 29, 8-(1-(4-chloro-3-fluorophenyl)-3,3-dimethyl-2,3-dihydro-1H-pyrrolo[3,2-b]pyridine-5-carbonyl)-1-methyl-1,3,8-triazaspiro[4.5]decan-4-one]
< 500 | CC1(C)CN(c2ccc(CC(=O)O)cn2)CCN1C(=O)c1cnc2c(n1)C1(CCCC1)CN2c1ccc(F)c(F)c1 [Example 229, 2-(6-(4-(5′-(3,4-difluorophenyl)-5′,6′-dihydrospiro[cyclopentane-1,7′-pyrrolo[2,3-b]pyrazine]-2′-carbonyl)-3,3-dimethylpiperazin-1-yl)pyridin-3-yl)acetic acid]
< 500 | CC(C)(C)OC(=O)N1CCN(C(=O)c2ccc3c(n2)C(C)(C)CN3c2ccc(Cl)c(F)c2)C(C)(C)C1 [Example 21, tert-butyl 4-(1-(4-chloro-3-fluorophenyl)-3,3-dimethyl-2,3-dihydro-1H-pyrrolo[3,2-b]pyridine-5-carbonyl)-3,3-dimethylpiperazine-1-carboxylate]
500 to 10000 | CCN1CCN(C(=O)c2ccc3c(n2)C(C)(C)CN3c2ccc(Cl)c(F)c2)C(C)(C)C1 [Example 23, (1-(4-chloro-3-fluorophenyl)-3,3-dimethyl-2,3-dihydro-1H-pyrrolo[3,2-b]pyridin-5-yl)(4-ethyl-2,2-dimethylpiperazin-1-yl)methanone hydrochloride]
500 to 10000 | CCC1(C)CN(c2ccc(Cl)c(F)c2)c2ccc(C(=O)NC3(C(N)=O)CC3)nc21 (stereo not drawn) [Example 54, N-(1-carbamoylcyclopropyl)-1-(4-chloro-3-fluorophenyl)-3-ethyl-3-methyl-2,3-dihydro-1H-pyrrolo[3,2-b]pyridine-5-carboxamide]
< 500 | CC1(C)CN(c2ccc(Cl)c(F)c2)c2ccc(C(=O)N3CCNC(=O)CC3(C)C)nc21 [Example 74, 1-(1-(4-chloro-3-fluorophenyl)-3,3-dimethyl-2,3-dihydro-1H-pyrrolo[3,2-b]pyridine-5-carbonyl)-7,7-dimethyl-1,4-diazepan-5-one]
< 500 | Cc1cc(N2CCN(C(=O)c3cnc4c(n3)C(C)(C)CN4c3cc(F)c(Cl)c(F)c3)C(C)(C)C2)nc(C)c1C(=O)O [Example 187, 6-(4-(5-(4-chloro-3,5-difluorophenyl)-7,7-dimethyl-6,7-dihydro-5H-pyrrolo[2,3-b]pyrazine-2-carbonyl)-3,3-dimethylpiperazin-1-yl)-2,4-dimethylnicotinic acid]
500 to 10000 | C[C@H](CC(=O)O)N(C)C(=O)c1ccc2c(n1)C(C)(C)CN2c1ccc(Cl)c(F)c1 [Example 47, (R)-3-(1-(4-chloro-3-fluorophenyl)-N,3,3-trimethyl-2,3-dihydro-1H-pyrrolo[3,2-b]pyridine-5-carboxamido)butanoic acid]
500 to 10000 | CC1(C)CN(c2ccc(Cl)c(F)c2)c2ccc(C(=O)N3CCN(C(=O)CCC(=O)O)CC3(C)C)nc21 [Example 26, 4-(4-(1-(4-chloro-3-fluorophenyl)-3,3-dimethyl-2,3-dihydro-1H-pyrrolo[3,2-b]pyridine-5-carbonyl)-3,3-dimethylpiperazin-1-yl)-4-oxobutanoic acid]
> 10000 | Cc1cc(N2CCN(C(=O)c3ccc(N4CC(C)(C)c5nc(C(=O)N6CCN(c7cc(C)c(C(=O)O)c(C)n7)CC6(C)C)ccc54)nc3)C(C)(C)C2)nc(C)c1C(=O)O [Example 133, 6-(4-(6-(5-(4-(5-carboxy-4,6-dimethylpyridin-2-yl)-2,2-dimethylpiperazine-1-carbonyl)-3,3-dimethyl-2,3-dihydro-1H-pyrrolo[3,2-b]pyridin-1-yl)nicotinoyl)-3,3-dimethylpiperazin-1-yl)-2,4-dimethylnicotinic acid]
